Converted amounts (≈) assume the structure as drawn. Read-outs that look alike come from different tables or passages of the source. Residues, ends and D or L forms follow the SMILES beside them. *: point of attachment. Cbz = O=C(OCc1ccccc1)*; CH2F = FC*
Assays:
[1] = set-up: method as in earlier work; settings: cell line not given; compared with 8b 27.87 μg/mL; cited from earlier work
[2] = test system: HCT116; assay: MTT cell proliferation assay, HCT116; type: cell-based, human; settings: for IC50: Homo sapiens, HCT-116, HCT116 colon cancer, 48 h
Procedure: (§1) The effects of the synthesized amide anthraquinone derivatives on the proliferative activity of eight human cancerous cell lines (EC9706, MCF-7, SGC-7901, HepG2, QBC939, HeLa, HCT116 and SW480) in addition to two normal human cell lines (colorectal FHC and liver HL7702) were evaluated using the standard MTT assay.
(§2) The human esophageal cancer cell line EC9706 was obtained from Cancer Hospital and Institute by Prof. Ming Rong Wang, Chinese Academy Medical of Sciences. The human colorectal carcinoma cell lines HCT116 and SW480, hepatoma cell line HepG2, cervical carcinoma cell line HeLa, breast cancer cell line MCF-7, gastric cancer cell line SGC-7901, cholangiocarcinoma cell line QBC939, normal fetal colon cell line FHC and liver cell line HL-7702 were obtained from the Cell Bank of the Shanghai Chinese Academy of Sciences. All cells were cultured in RPMI 1640 medium containing 100 U/mL penicillin and streptomycin and 10% fetal bovine serum and maintained at 37°C under a 5% CO2 atmosphere.
(§3) We analyzed the inhibitory effects of eight anthraquinone-amino acid derivatives on the proliferation of eight tumor cell lines and two normal cell lines in vitro using MTT assays. Cells were added to a 96-well plate with (5,000 cells per well in 100 µL RPMI-1640 medium). Cells were treated with different concentrations (10–100 μg/mL) of 8a–8h for 48 h and then incubated with 20 μL MTT (5 mg/mL) for another 4 h at 37°C. DMSO (150 μL) was then added to each well to dissolve the formazan crystals. The absorbance of each well was read at 490 nm on a microtiter plate ELISA reader. The mean values were obtained from a minimum of three parallel experiments. IC50 values were calculated.

[3] = test system: SW480; assay: MTT cell proliferation assay, SW480; type: cell-based; settings: Homo sapiens, SW480 colon cancer, 48 h
Procedure: as §1, §2, §3

[4] = test system: MCF-7; assay: MTT cell proliferation assay, MCF-7; type: cell-based; settings: Homo sapiens, MCF7, MCF-7 breast cancer, 48 h
Procedure: as §1, §2, §3

[5] = test system: HepG2; assay: MTT cell proliferation assay, HepG2; type: cell-based; settings: Homo sapiens, HepG2 liver cancer, 48 h
Procedure: as §1, §2, §3

[6] = test system: HeLa; assay: MTT cell proliferation assay, HeLa; type: cell-based; settings: Homo sapiens, HeLa cervical cancer, 48 h
Procedure: as §1, §2, §3

[7] = test system: SGC-7901; assay: MTT cell proliferation assay, SGC-7901; type: cell-based, human; settings: SGC-7901 gastric cancer
Procedure: as §1, §2, §3

[8] = test system: EC9708; assay: MTT cell proliferation assay, EC9706 (Table 1: EC9708); type: cell-based; settings: Homo sapiens, EC9708 esophageal cancer, 48 h
Procedure: as §1, §2, §3

[9] = test system: FHC; assay: MTT cell proliferation assay, normal colorectal cells FHC; type: cell-based; settings: FHC normal human colorectal mucosa, 48 h
Procedure: as §1, §2, §3

[10] = test system: QBC939; assay: MTT cell proliferation assay, QBC939; type: cell-based; settings: Homo sapiens, QBC939 cholangiocarcinoma, 48 h
Procedure: as §1, §2, §3

[11] = test system: HL-7702; assay: MTT cell proliferation assay, normal liver cells HL-7702; type: cell-based; settings: L02, HL-7702 normal human hepatocyte, 48 h
Procedure: as §1, §2, §3

[12] = test system: HCT116 cells; assay: MTT cell viability with or without zVAD-FMK; type: cell-based, human; settings: zVAD-FMK 5 mM alone, 24 h
From the text: Caspases represent a key molecular group in the regulation of apoptosis. In caspases, there is an upstream and downstream relationship between the initiator of apoptosis and executioner. Caspase 3 is one of the key executers of apoptosis, as it is either partially or totally responsible for the proteolytic cleavage of many key proteins. For example, when caspase 9 is activated, it activates caspase 3, which ultimately triggers cell apoptosis. After detecting the expression of the corresponding Bcl-2 family proteins after 8a treatment by western blotting, we went on to detect the expression levels of PARP, caspase 9, cleaved caspase 9, caspase 3, and cleaved caspase 3 proteins. […] After 24 h of treatment with zVAD-FMK, cell viability is 93%.
Figure 7 Effect of 8a on apoptosis-related protein expression. […] PARP, caspase 3, cleaved caspase 3, caspase 9, cleaved caspase 9, Bcl-2, phosphorylated Bcl-2, Bcl-XL, phosphorylated Bcl-xL and Bax were detected by western blot analysis; β-actin was used as a loading control in each lane. Representative data of three independent experiments are shown; (C) and (D) Grayscale analysis of the relative expression of apoptosis-related proteins detected by Western blotting. […] (E) Cells were exposed to 8a (20 μg/mL) and/or zVAD-FMK ([…]) for 24 h, and cell viability was measured by MTT assay. […]

[13] = set-up: method as in PMID 24096626; settings: on entering the bloodstream; cited from earlier work
[14] = set-up: method as in PMID 27111664, PMID 28811348; settings: background statement, no own measurement; cited from earlier work
[15] = Homo sapiens, SGC-7901, 48 h, read-out: IC50

Row | Compound | IC50 [1] | IC50 [2] | IC50 [3] | IC50 [4] | IC50 [5] | IC50 [6] | IC50 [7, 15] | IC50 ([7]; 48 h) | IC50 [8] | IC50 [9] | IC50 [10] | IC50 [11] | melting point | proliferation of HCT116 cells (in words) [2] | cell viability [12] | fraction bound to plasma proteins [13] | water solubility [14]
1 | CC(C)C(NC(=O)c1cc(O)c2c(c1)C(=O)c1cccc(O)c1C2=O)C(=O)O (stereo not shown) [rhein valine] | 33.51 µg/mL (≈ 87.4 µM) | – | – | – | – | – | – | – | – | – | – | – | – | – | – | – | –
2 | O=C1c2ccccc2C(=O)c2c1ccc(C(=O)N1CCCC1C(=O)O)c2[N+](=O)[O-] (stereo not shown) [Compound 8e] | – | 35.03 ± 0.25 µg/mL (≈ 88.8 µM) | 60.49 ± 0.07 µg/mL (≈ 153 µM) | 31.31 ± 0.13 µg/mL (≈ 79.4 µM) | 49.07 ± 0.08 µg/mL (≈ 124 µM) | 48.82 ± 0.13 µg/mL (≈ 124 µM) | 60.5 µg/mL (≈ 153 µM) | 72.31 ± 0.33 µg/mL (≈ 183 µM) | 47.35 ± 0.21 µg/mL (≈ 120 µM) | > 1000 µg/mL | 37.73 ± 0.23 µg/mL (≈ 95.7 µM) | > 1000 µg/mL | – | – | – | – | –
3 | O=C(O)CNC(=O)c1ccc2c(c1[N+](=O)[O-])C(=O)c1ccccc1C2=O [Compound 8d] | – | 27.75 ± 0.11 µg/mL (≈ 78.3 µM) | 43.08 ± 0.05 µg/mL (≈ 122 µM) | 26.87 ± 0.06 µg/mL (≈ 75.8 µM) | 40.11 ± 0.02 µg/mL (≈ 113 µM) | 28.7 ± 0.17 µg/mL (≈ 81 µM) | 60.83 ± 0.12 µg/mL (≈ 172 µM) | – | 41.47 ± 0.14 µg/mL (≈ 117 µM) | > 1000 µg/mL | 36.71 ± 0.04 µg/mL (≈ 104 µM) | > 1000 µg/mL | – | – | – | – | –
4 | CC(C)C(NC(=O)c1ccc2c(c1[N+](=O)[O-])C(=O)c1ccccc1C2=O)C(=O)O (stereo not shown) [Compound 8b, 1-nitro-2-acyl-anthraquinone valine] | – | 21 ± 0.38 µg/mL (≈ 53 µM) | 42.4 ± 0.68 µg/mL (≈ 107 µM) | 30.81 ± 0.05 µg/mL (≈ 77.7 µM) | 44 ± 0.53 µg/mL (≈ 111 µM) | 27.87 ± 0.22 µg/mL (≈ 70.3 µM) | 67.98 ± 0.18 µg/mL (≈ 172 µM) | – | 38.94 ± 0.02 µg/mL (≈ 98.2 µM) | > 1000 µg/mL | 72.88 ± 0.16 µg/mL (≈ 184 µM) | > 1000 µg/mL | – | – | – | – | –
5 | O=C1c2ccccc2C(=O)c2c1ccc(C(=O)NC(Cc1ccccc1)C(=O)O)c2[N+](=O)[O-] (stereo not shown) [Compound 8c] | – | 30.12 ± 0.02 µg/mL (≈ 67.8 µM) | 39.5 ± 0.31 µg/mL (≈ 88.9 µM) | 28.26 ± 0.13 µg/mL (≈ 63.6 µM) | 58.34 ± 0.22 µg/mL (≈ 131 µM) | 25.94 ± 0.22 µg/mL (≈ 58.4 µM) | 61.6 ± 0.14 µg/mL (≈ 139 µM) | – | 30.24 ± 0.23 µg/mL (≈ 68 µM) | > 1000 µg/mL | 34.2 ± 0.42 µg/mL (≈ 77.1 µM) | > 1000 µg/mL | > 250 °C | – | – | – | –
6 | O=C(O)CCC(NC(=O)c1ccc2c(c1[N+](=O)[O-])C(=O)c1ccccc1C2=O)C(=O)O (stereo not shown) [Compound 8h] | – | 100.38 ± 0.04 µg/mL (≈ 235 µM) | 119.93 ± 0.03 µg/mL (≈ 281 µM) | 546.68 ± 0.31 µg/mL (≈ 1280 µM) | 467.74 ± 0.06 µg/mL (≈ 1100 µM) | 334.28 ± 0.04 µg/mL (≈ 784 µM) | 200.35 ± 0.05 µg/mL (≈ 470 µM) | – | 112.41 ± 0.03 µg/mL (≈ 264 µM) | > 1000 µg/mL | 112.02 ± 0.03 µg/mL (≈ 263 µM) | > 1000 µg/mL | – | significantly inhibited | – | – | –
7 | COC(=O)C[C@H](NC(=O)[C@H](C)NC(=O)[C@@H](NC(=O)OCc1ccccc1)C(C)C)C(=O)CF [zVAD-FMK, reference compound] (Cbz-Val-Ala-Asp(OMe)-CH2F) | – | – | – | – | – | – | – | – | – | – | – | – | – | – | 93% | – | –
8 | O=C1c2c(O)ccc(O)c2C(=O)c2c(NCCNCCO)ccc(NCCNCCO)c21 [MX, mitoxantrone] | – | – | – | – | – | – | – | – | – | – | – | – | – | – | – | > 95% | –
9 | Cc1cc(O)c2c(c1)C(=O)c1cc(O)cc(O)c1C2=O [Emodin, emodin] | – | – | – | – | – | – | – | – | – | – | – | – | – | – | – | – | poor
10 | CSCCC(NC(=O)c1ccc2c(c1[N+](=O)[O-])C(=O)c1ccccc1C2=O)C(=O)O (stereo not shown) [Compound 8g] | – | 86.49 ± 0.02 µg/mL (≈ 202 µM) | 158.37 ± 0.04 µg/mL (≈ 370 µM) | 275.52 ± 0.07 µg/mL (≈ 643 µM) | 520.52 ± 0.22 µg/mL (≈ 1210 µM) | 122.52 ± 0.05 µg/mL (≈ 286 µM) | 235.81 ± 0.02 µg/mL (≈ 550 µM) | – | 300.18 ± 0.11 µg/mL (≈ 701 µM) | > 1000 µg/mL | 290.94 ± 0.05 µg/mL (≈ 679 µM) | > 1000 µg/mL | – | significantly inhibited | – | – | –
11 | CC(NC(=O)c1ccc2c(c1[N+](=O)[O-])C(=O)c1ccccc1C2=O)C(=O)O (stereo not shown) [Compound 8f] | – | 98.43 ± 0.13 µg/mL (≈ 267 µM) | 155.38 ± 0.14 µg/mL (≈ 422 µM) | 342.19 ± 0.22 µg/mL (≈ 929 µM) | 296.42 ± 0.21 µg/mL (≈ 805 µM) | 241.31 ± 0.13 µg/mL (≈ 655 µM) | 165.3 ± 0.21 µg/mL (≈ 449 µM) | – | 257.31 ± 0.2 µg/mL (≈ 699 µM) | > 1000 µg/mL | 357.52 ± 0.08 µg/mL (≈ 971 µM) | > 1000 µg/mL | – | significantly inhibited | – | – | –
